In patent US20250145606A1 (Arcus Biosciences, Inc., priority 2023, published 2025) one finds IC50 data, which are given here for 15 molecules.

Like-named read-outs stand apart in the source and are kept apart here.

One test concerns the target c-Kit (Homo sapiens (Human), UniProt P10721). The test can be described thus: Inhibition of c-Kit kinase activity (HTRF KinEASE-TK). It is filed as biochemical. The following applies: biochemical. Summed up:
(§1)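 Recombinant kinases (2 nM CSF1R and c-Kit, 10 nM PDGFRα/β, 2× working) preincubated 1 h with compound in 50 mM HEPES pH 7.4, 5 mM MgCl2 (c-Kit) or 10 mM (others), 2 mM MnCl2; 2× ATP: c-Kit 16 μM, PDGFRα 1 μM, PDGFRβ 40 μM, CSF1R 20 μM. 120 min reaction at rt; TR-FRET 665/620 nm; IC50 by 4-parameter fit.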
Background: In TR-FRET formats the signal depends on donor and acceptor labels being close together.

The target of a further test is PDGFRα (Homo sapiens (Human), UniProt P16234). The test can be described thus: Inhibition of PDGFRα kinase activity (HTRF KinEASE-TK). Particulars: biochemical. Summed up:
as §1

The next test addresses PDGFRβ (Homo sapiens (Human), UniProt P09619). The test is described as follows: Inhibition of PDGFRβ kinase activity (HTRF KinEASE-TK). The following applies: biochemical. The method in brief:
as §1

Another test deals with CSF1R (Homo sapiens (Human), UniProt P07333). The test can be described thus: Inhibition of CSF1R kinase activity (HTRF KinEASE-TK). The following applies: biochemical. The method in brief:
as §1

The next test concerns the target FLT3 (Homo sapiens (Human), UniProt P36888). The test can be described thus: Inhibition of FLT3 kinase activity (HTRF KinEASE-TK). The following applies: biochemical. It is filed as biochemical. As for the experimental part: Inhibition of c-Kit, PDGFRα, PDGFRβ, CSFIR and FLT3 Kinase Activity
Compounds were evaluated to determine the potency with which they inhibit the kinase activity of the following panel of tyrosine kinases: c-Kit (SignalChem, Product #: K06-11BG), PDGFRα (SignalChem, Product #: P12-18G), PDGFRβ (SignalChem, Product #: P13-11G), CSFIR (SignalChem, Product #: C74-11G) and FLT3 (Invitrogen, Product #: PR4666C). Activity was determined as a function of phosphorylated biotinylated TK peptide generated by the transfer of phosphate from ATP as measured by the use of the HTRF KinEASE-TK assay kit (Cisbio, Product #: 62TKOPEJ). Levels of phosphorylated biotinylated TK peptide (Part 61TKOBLC of KinEASE assay kit) are quantified by its capture by phosphor-TK-Antibody-Cryptate (Part of KinEASE assay kit) and XL665-labeled Streptavidin (Part 610SAXLG of KinEASE assay kit) followed by measurement of Time-Resolved Fluorescence Resonance Energy Transfer (TR-FRET) signal. On the day of the assay, compounds were solubilized in DMSO and dispensed into a 384-well white Opti-plate (PerkinElmer, catalog #6007290) to generate a 22 point 1:2 titration. Enzyme solution was prepared for each of the tyrosine kinases in 50 mM HEPES, pH 7.4, 5 mM MgCl2 for c-Kit or 10 mM MgCl2 for FLT3, CSFIR, PDGFRa and PDGFRβ, 2 mM MnCl2, 0.01% Brij-35 and 0.01% BSA. Working enzyme concentrations were prepared for c-Kit at 2 nM (2×), PDGFRa and PDGFRß at 10 nM (2×), CSFIR at 2 nM (2×) and FLT3 at 0.4 nM (2×). Five microliters of enzyme dilution of each tyrosine kinase were added to their respective 384-well white Opti-plate pre-dispensed with compound and allowed to incubate for 1 h at rt. Utilizing the same enzyme buffer recipe, 2x substrate mixes were prepared for each enzyme as follows: For c-Kit, 1.6 μM (2×) TK substrate and 16 μM (2×) ATP (Promega, catalog #V915). For PDGFRα, 3.2 μM TK substrate and 1 μM ATP. For PDGFRβ, 3.2 μM TK substrate and 40 μM ATP. For CSFIR, […] TK substrate and 20 μM ATP. For FLT3, 3.2 μM TK substrate and 100 μM ATP. Reactions were initiated by addition of 5 μL of the respective 2x substrate mix to each well of the plates containing the respective tyrosine kinase enzymes and were allowed to proceed for 120 minutes at rt, except for FLT3, the reaction time is 45 min. Following the reaction, 10 μL of detection mix consisting of 0.2 μM (2×) of Streptavidin-XL665 and 2 μM (2×) of TK-Antibody-Cryptate prepared in detection buffer (Part 62SDBRDF of KinEASE assay kit) was added and then allowed to incubate for 60 min. The TR-FRET signal was quantified by measuring the ratio of emission at 665 nm to 620 nm after excitation at 320 nm by reading on a PerkinElmer Envision multimode reader. Compound potencies (IC50 values) were determined using a standard 4-parameter non-linear regression fit.

Test [1] relates to Phospho-KIT (Y703) in M07e cells. The test is described as follows: Phospho-KIT (Y703) cellular assay in M07e cells. The format is cell-based. The following applies: M-07e, read-out: M07e Cell IC50. Summed up:
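Serum-starved M07e cells preincubated 50 min at 37° C with 11-point half-log compound titration, then stimulated 10 min with SCF at 90.9 ng/mL final. Fixed, permeabilized cells stained for phospho-KIT Y703 and read by flow cytometry (live-gated geometric mean); IC50 by 4-parameter fit normalized to DMSO and positive control.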

Where [2] appears, read: phospho-KIT (Y703), SCF-stimulated M07e cells.

CSF1R, sequence (P07333 20-972): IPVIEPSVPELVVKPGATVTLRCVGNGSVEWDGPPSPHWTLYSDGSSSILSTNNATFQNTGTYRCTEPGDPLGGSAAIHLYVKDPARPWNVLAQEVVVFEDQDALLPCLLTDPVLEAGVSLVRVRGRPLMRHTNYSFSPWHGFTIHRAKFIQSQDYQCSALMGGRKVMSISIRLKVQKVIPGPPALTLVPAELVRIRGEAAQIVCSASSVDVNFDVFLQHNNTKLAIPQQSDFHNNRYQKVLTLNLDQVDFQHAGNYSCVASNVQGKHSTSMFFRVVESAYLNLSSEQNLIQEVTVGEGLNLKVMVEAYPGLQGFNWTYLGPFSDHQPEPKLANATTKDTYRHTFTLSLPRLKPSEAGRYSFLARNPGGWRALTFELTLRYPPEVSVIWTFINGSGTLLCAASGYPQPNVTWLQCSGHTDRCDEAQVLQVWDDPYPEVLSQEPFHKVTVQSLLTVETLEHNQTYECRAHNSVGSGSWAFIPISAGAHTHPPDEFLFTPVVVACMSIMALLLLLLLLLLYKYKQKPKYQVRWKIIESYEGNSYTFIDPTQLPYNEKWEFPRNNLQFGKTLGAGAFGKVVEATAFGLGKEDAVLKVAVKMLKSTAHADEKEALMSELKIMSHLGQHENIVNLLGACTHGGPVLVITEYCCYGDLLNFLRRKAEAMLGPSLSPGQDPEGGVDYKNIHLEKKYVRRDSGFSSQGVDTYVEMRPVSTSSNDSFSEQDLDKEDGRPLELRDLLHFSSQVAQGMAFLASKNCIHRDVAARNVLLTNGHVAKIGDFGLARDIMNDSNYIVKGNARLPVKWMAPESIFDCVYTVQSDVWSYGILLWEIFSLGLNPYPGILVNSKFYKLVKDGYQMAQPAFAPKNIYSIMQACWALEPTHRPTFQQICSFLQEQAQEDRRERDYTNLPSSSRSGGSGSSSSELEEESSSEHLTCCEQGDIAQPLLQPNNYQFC
PDGFRβ, sequence (P09619 33-1106): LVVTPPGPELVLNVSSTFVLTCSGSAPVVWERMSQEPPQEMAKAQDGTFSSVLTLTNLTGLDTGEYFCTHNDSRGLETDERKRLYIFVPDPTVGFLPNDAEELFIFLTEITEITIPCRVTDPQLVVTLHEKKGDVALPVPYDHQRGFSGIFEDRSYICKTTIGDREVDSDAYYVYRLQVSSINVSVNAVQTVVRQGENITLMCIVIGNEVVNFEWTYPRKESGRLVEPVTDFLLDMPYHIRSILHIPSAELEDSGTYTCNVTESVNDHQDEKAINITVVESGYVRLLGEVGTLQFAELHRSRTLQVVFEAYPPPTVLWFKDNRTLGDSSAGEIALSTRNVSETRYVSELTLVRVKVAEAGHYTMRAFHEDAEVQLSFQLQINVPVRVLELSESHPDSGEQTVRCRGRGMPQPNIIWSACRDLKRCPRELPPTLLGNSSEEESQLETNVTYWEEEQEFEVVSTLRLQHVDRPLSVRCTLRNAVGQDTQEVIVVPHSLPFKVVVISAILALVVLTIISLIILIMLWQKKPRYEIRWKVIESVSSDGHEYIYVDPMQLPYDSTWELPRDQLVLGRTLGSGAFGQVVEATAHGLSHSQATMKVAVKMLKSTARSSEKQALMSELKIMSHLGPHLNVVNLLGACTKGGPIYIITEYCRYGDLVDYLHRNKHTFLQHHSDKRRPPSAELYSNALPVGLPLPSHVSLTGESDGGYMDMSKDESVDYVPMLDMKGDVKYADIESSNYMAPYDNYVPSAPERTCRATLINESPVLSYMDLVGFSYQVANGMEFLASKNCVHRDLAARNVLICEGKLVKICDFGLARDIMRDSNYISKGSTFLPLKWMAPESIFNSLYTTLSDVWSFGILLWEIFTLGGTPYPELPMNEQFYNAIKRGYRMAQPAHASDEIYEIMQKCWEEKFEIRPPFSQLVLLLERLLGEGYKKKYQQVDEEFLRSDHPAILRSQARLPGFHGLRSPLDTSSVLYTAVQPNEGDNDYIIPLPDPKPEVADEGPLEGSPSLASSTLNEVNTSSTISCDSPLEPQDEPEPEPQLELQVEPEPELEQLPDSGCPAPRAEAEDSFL
FLT3, sequence (P36888 27-993): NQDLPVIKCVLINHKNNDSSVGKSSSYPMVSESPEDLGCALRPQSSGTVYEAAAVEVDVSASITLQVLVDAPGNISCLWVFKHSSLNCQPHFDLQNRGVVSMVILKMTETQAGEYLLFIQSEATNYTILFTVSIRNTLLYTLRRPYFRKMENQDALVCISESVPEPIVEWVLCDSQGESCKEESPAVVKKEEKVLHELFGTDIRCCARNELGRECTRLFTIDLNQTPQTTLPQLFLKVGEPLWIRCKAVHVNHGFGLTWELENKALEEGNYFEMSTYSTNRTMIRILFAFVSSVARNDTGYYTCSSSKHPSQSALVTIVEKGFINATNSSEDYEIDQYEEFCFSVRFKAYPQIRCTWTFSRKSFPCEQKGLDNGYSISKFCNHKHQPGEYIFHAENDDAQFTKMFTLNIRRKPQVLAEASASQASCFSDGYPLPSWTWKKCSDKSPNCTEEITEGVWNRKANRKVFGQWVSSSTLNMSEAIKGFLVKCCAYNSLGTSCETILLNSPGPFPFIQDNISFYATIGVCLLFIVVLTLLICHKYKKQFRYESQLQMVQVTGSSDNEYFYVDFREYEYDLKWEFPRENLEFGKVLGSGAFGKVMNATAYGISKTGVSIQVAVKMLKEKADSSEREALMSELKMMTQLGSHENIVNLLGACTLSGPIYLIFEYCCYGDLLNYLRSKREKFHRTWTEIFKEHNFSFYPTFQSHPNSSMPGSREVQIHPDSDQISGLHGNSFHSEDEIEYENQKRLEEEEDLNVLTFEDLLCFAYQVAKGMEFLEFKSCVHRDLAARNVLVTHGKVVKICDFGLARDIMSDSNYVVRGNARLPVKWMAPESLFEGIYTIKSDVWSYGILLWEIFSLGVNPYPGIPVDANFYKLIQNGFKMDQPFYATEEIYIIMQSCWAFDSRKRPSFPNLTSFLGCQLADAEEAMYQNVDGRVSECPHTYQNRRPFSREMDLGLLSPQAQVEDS
PDGFRα, sequence (P16234 24-1089): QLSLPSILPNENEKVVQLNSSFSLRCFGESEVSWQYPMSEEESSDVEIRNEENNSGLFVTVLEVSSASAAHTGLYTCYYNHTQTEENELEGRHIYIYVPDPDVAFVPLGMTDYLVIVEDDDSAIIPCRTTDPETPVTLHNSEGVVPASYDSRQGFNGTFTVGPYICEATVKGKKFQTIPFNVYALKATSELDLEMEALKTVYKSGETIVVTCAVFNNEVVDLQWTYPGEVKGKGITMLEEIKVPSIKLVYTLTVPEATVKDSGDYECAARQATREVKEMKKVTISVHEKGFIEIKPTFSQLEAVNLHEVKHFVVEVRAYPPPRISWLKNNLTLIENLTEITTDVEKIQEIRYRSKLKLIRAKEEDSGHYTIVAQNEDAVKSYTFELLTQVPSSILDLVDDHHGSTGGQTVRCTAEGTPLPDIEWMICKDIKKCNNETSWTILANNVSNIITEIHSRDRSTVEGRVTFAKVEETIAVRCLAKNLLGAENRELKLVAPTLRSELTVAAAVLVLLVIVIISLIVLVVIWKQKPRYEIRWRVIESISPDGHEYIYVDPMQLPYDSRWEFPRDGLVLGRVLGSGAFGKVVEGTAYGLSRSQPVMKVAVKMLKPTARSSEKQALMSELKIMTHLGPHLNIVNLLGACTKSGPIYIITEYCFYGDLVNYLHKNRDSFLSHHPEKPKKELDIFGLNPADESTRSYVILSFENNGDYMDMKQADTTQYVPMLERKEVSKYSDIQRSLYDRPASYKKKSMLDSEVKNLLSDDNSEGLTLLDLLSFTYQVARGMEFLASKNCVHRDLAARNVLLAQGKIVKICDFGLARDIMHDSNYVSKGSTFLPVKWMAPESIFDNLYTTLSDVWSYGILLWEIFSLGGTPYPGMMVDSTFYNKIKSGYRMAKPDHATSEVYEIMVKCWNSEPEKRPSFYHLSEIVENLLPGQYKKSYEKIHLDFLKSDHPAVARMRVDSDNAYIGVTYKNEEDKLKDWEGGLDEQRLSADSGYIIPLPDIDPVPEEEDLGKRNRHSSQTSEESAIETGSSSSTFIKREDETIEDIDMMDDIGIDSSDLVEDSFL
c-Kit, sequence (P10721 26-976): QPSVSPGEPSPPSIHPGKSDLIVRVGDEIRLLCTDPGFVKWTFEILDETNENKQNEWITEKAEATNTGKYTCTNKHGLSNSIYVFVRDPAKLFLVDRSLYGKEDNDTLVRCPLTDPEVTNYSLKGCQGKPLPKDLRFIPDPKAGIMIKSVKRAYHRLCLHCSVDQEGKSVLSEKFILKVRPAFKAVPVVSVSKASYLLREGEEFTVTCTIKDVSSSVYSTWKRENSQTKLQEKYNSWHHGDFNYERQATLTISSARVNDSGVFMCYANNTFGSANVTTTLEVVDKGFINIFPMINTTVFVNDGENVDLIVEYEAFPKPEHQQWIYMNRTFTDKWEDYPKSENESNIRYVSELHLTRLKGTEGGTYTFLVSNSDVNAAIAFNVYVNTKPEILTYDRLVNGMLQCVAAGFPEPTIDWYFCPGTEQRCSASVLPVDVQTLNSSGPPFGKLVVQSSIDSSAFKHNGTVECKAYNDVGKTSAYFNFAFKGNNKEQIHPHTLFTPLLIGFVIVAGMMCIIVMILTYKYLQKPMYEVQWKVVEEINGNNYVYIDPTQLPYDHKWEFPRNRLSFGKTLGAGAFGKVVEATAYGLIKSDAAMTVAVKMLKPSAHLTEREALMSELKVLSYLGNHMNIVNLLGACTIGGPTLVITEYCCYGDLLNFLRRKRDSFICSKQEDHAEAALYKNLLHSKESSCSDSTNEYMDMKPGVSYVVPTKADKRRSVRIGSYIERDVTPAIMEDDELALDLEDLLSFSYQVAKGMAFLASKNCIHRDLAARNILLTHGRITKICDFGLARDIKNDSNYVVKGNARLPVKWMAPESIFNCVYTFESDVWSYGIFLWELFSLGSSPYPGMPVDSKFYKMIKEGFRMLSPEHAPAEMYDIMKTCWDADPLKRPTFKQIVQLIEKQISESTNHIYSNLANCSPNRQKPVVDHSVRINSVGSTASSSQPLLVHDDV

Usually IC50 stands for the concentration at which inhibition is half-maximal. In the case of `Cc1cc(F)c(C(=O)Nc2ccc(CC3CC3)cn2)cc1NC(=O)c1cnc(N)s1` [Example 7, 2-Amino-N-[5-[[5-(cyclopropylmethyl)pyridin-2-yl]carbamoyl]-4-fluoro-2-methylphenyl]-1,3-thiazole-5-carboxamide], the IC50 is < 100 nM on c-Kit; 100 to 1000 nM against PDGFRα; < 100 nM at PDGFRβ; 100 to 1000 nM against CSF1R; > 1000 nM against FLT3; < 100 nM in test [1] (setting [2]).

Regarding `Cc1cc(F)c(C(=O)Nc2ccc(OC(F)(F)F)cn2)cc1NC(=O)c1cnc(N)s1` [Example 8, 2-Amino-N-[4-fluoro-2-methyl-5-[[5-(trifluoromethoxy)pyridin-2-yl]carbamoyl]phenyl]-1,3-thiazole-5-carboxamide], the IC50 is < 100 nM on c-Kit; 100 to 1000 nM against PDGFRα; 100 to 1000 nM against PDGFRβ; 100 to 1000 nM on CSF1R; > 1000 nM against FLT3; < 100 nM in test [1] (setting [2]).

As for `Cc1ncc(C(=O)Nc2cc(C(=O)Nc3cnc(OC4CC4)cn3)c(F)cc2C)s1` [Example 13, N-[5-[(5-Cyclopropyloxypyrazin-2-yl)carbamoyl]-4-fluoro-2-methylphenyl]-2-methyl-1,3-thiazole-5-carboxamide], the IC50 was < 100 nM against c-Kit (HTRF KinEASE-TK); > 1000 nM against CSF1R (HTRF KinEASE-TK); > 1000 nM on FLT3 (HTRF KinEASE-TK); < 100 nM in test [1] (Phospho-KIT (Y703), M07e cells).

For `Cc1ncc(C(=O)Nc2cc(C(=O)Nc3ccc(C4CC4)nc3)c(F)cc2C)s1` [Example 24, N-[5-[(6-Cyclopropylpyridin-3-yl)carbamoyl]-4-fluoro-2-methylphenyl]-2-methyl-1,3-thiazole-5-carboxamide], the IC50 was < 100 nM against c-Kit (HTRF KinEASE-TK); > 1000 nM on CSF1R (HTRF KinEASE-TK); > 1000 nM on FLT3 (HTRF KinEASE-TK); < 100 nM in test [1] (Phospho-KIT (Y703), M07e cells).

In the case of `Cc1ncc(C(=O)Nc2cc(C(=O)Nc3cnc(OC(F)(F)F)cn3)c(F)cc2C)s1` [Example 87, N-[5-(N-5-trifluoromethoxy-2-pyrazinylcarbamoyl)-4-fluoro-2-tolyl]-2-methyl-1,3-thiazole-5-carboxamide], the IC50 is < 100 nM at c-Kit (HTRF KinEASE-TK); > 1000 nM against CSF1R (HTRF KinEASE-TK); > 1000 nM at FLT3 (HTRF KinEASE-TK); < 100 nM in test [1] (Phospho-KIT (Y703), M07e cells).

In the case of `Cc1ncc(C(=O)Nc2cc(C(=O)Nc3cnc(CC4CC4)cn3)c(F)cc2C)s1` [Example 91, N-{5-[N-5-(cyclopropylmethyl)-2-pyrazinylcarbamoyl]-4-fluoro-2-tolyl}-2-methyl-1,3-thiazole-5-carboxamide], the IC50 at c-Kit (HTRF KinEASE-TK) is < 100 nM; against CSF1R (HTRF KinEASE-TK), > 1000 nM; on FLT3 (HTRF KinEASE-TK) it was > 1000 nM; in test [1] (Phospho-KIT (Y703), M07e cells), < 100 nM.

As to `Cc1cc(F)c(C(=O)NCC2(F)CCC2)cc1NC(=O)c1cnc(NC(=O)N2CCC2)s1` [Example 104, 2-(Azetidine-1-carbonylamino)-N-[4-fluoro-5-[(1-fluorocyclobutyl)methylcarbamoyl]-2-methylphenyl]-1,3-thiazole-5-carboxamide], the IC50 against c-Kit (HTRF KinEASE-TK) was < 100 nM; against CSF1R (HTRF KinEASE-TK) it was 100 to 1000 nM; against FLT3 (HTRF KinEASE-TK), > 1000 nM; in test [1] (Phospho-KIT (Y703), M07e cells), < 100 nM.

For `COCCn1ccc(NC(=O)c2cc(NC(=O)c3cnc(N)s3)c(C)cc2F)n1` [Example 154, 2-Amino-N-[4-fluoro-5-[[1-(2-methoxyethyl)pyrazol-3-yl]carbamoyl]-2-methylphenyl]-1,3-thiazole-5-carboxamide], the IC50 against c-Kit (HTRF KinEASE-TK) was < 100 nM; against PDGFRα (HTRF KinEASE-TK), > 1000 nM; on PDGFRβ (HTRF KinEASE-TK), > 1000 nM; against FLT3 (HTRF KinEASE-TK), > 1000 nM; in test [1] (Phospho-KIT (Y703), M07e cells), < 100 nM.

On to `Cc1cc(F)c(C(=O)Nc2ccn(-c3ccccn3)n2)cc1NC(=O)c1cnc(N)s1` [Example 168, 2-Amino-N-[4-fluoro-2-methyl-5-[(1-pyridin-2-ylpyrazol-3-yl)carbamoyl]phenyl]-1,3-thiazole-5-carboxamide], for which the half-inhibitory concentration (IC50) against c-Kit (HTRF KinEASE-TK) is < 100 nM; against PDGFRβ (HTRF KinEASE-TK), > 1000 nM; at CSF1R (HTRF KinEASE-TK), > 1000 nM; against FLT3 (HTRF KinEASE-TK), > 1000 nM; in test [1] (Phospho-KIT (Y703), M07e cells), < 100 nM.

In the case of `Cc1cc(F)c(C(=O)NCC2(F)CC2)cc1NC(=O)c1cnc(N)s1` [Example 193, 2-Amino-N-[4-fluoro-5-[(1-fluorocyclopropyl)methylcarbamoyl]-2-methylphenyl]-1,3-thiazole-5-carboxamide], the IC50 against c-Kit (HTRF KinEASE-TK) was < 100 nM; on CSF1R (HTRF KinEASE-TK), > 1000 nM; on FLT3 (HTRF KinEASE-TK), > 1000 nM; in test [1] (Phospho-KIT (Y703), M07e cells), < 100 nM.

Regarding `Nc1ncc(C(=O)Nc2cc(C(=O)Nc3ccc(OC4CC4)cn3)c(F)cc2F)s1` [Example 222, 2-Amino-N-[5-[(5-cyclopropyloxypyridin-2-yl)carbamoyl]-2,4-difluorophenyl]-1,3-thiazole-5-carboxamide], the half-inhibitory concentration (IC50) against c-Kit (HTRF KinEASE-TK) is < 100 nM; at PDGFRα (HTRF KinEASE-TK), > 1000 nM; against PDGFRβ (HTRF KinEASE-TK), > 1000 nM; on FLT3 (HTRF KinEASE-TK), > 1000 nM; in test [1] (Phospho-KIT (Y703), M07e cells), < 100 nM.

Turning to `Cc1cc(F)c(C(=O)Nc2ccc(OC(F)F)cc2)cc1NC(=O)c1cnc(N)s1` [Example 227, 2-Amino-N-[5-[[4-(difluoromethoxy)phenyl]carbamoyl]-4-fluoro-2-methylphenyl]-1,3-thiazole-5-carboxamide], the IC50 at c-Kit (HTRF KinEASE-TK) is < 100 nM; on PDGFRα (HTRF KinEASE-TK), < 100 nM; on PDGFRβ (HTRF KinEASE-TK) it was < 100 nM; against CSF1R (HTRF KinEASE-TK), < 100 nM; at FLT3 (HTRF KinEASE-TK) it was > 1000 nM.

On to `Nc1ncc(C(=O)Nc2cc(C(=O)Nc3ccc(OC4CC4)cn3)c(F)cc2Br)s1` [Example 236, 2-Amino-N-[2-bromo-5-[(5-cyclopropyloxypyridin-2-yl)carbamoyl]-4-fluorophenyl]-1,3-thiazole-5-carboxamide], for which the IC50 on c-Kit (HTRF KinEASE-TK) was < 100 nM; against PDGFRα (HTRF KinEASE-TK), > 1000 nM; against PDGFRβ (HTRF KinEASE-TK), 100 to 1000 nM; on CSF1R (HTRF KinEASE-TK) it was 100 to 1000 nM; on FLT3 (HTRF KinEASE-TK) it was > 1000 nM.

Consider `Cc1cc(F)c(C(=O)Nc2ccc(OC3CC3)cn2)cc1NC(=O)c1cnc(NC(=O)C(F)(F)F)s1` [Example 239, N-[5-[(5-cyclopropyloxypyridin-2-yl)carbamoyl]-4-fluoro-2-methylphenyl]-2-[(2,2,2-trifluoroacetyl)amino]-1,3-thiazole-5-carboxamide], for which the IC50 against c-Kit (HTRF KinEASE-TK) is < 100 nM; on PDGFRα (HTRF KinEASE-TK), > 1000 nM; on PDGFRβ (HTRF KinEASE-TK), 100 to 1000 nM; on CSF1R (HTRF KinEASE-TK), > 1000 nM; on FLT3 (HTRF KinEASE-TK), > 1000 nM.

As for `CC(=O)Nc1ncc(C(=O)Nc2cc(C(=O)Nc3ccc(OC4CC4)cn3)c(F)cc2C)s1` [Example 240, 2-Acetamido-N-[5-[(5-cyclopropyloxypyridin-2-yl)carbamoyl]-4-fluoro-2-methylphenyl]-1,3-thiazole-5-carboxamide], the IC50 at c-Kit (HTRF KinEASE-TK) was < 100 nM; against PDGFRα (HTRF KinEASE-TK), > 1000 nM; against PDGFRβ (HTRF KinEASE-TK) it was < 100 nM; at CSF1R (HTRF KinEASE-TK), > 1000 nM; against FLT3 (HTRF KinEASE-TK), > 1000 nM.
